± gives the standard deviation of the averaged measurements.

The first assay has as its system U-2 OS. Nature of the assay: cell viability (CellTiter-Glo) relative to DMSO (% of control); higher = more viable. The conditions noted are these: 40 µM; 24 h. An outline of the steps:
(§1)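 U-2 OS cells were plated at 750 per well in white low-volume 384-well plates, and after 24 h most compounds were added by pin tool at 20, 10 and 5 μM with 0.4% DMSO for 24 h at 37 °C. On separate plates, total glutathione and GSSG were measured with GSH/GSSG-Glo and viability with CellTiter-Glo, all by luminescence. The GSH/GSSG-Glo reagents were diluted three-fold in PBS, with GSH standards on every plate. After background and row/column correction, values are given relative to vehicle wells or as a calculated GSH:GSSG ratio, drawn from five replicate plates.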
For `Oc1cccc(O)c1O`, the cell viability came to 0.221 ± 0.03.

Still in this assay, the particulars now being: 80 µM; 24 h.
Compound `O=C(/C(C(N1CC2=CC=CC=C2)=O)=C/C3=C(C)C=C(O)C=C3C)N(CC4=CC=CC=C4)C1=O` returned a cell viability of 14.7 ± 7.9.

With `Oc1cccc(O)c1O`, the cell viability was 0.263 ± 0.059.

In the next assay the test system is U-2 OS. Briefly: total intracellular glutathione (GSH + GSSG) relative to DMSO (% of control); higher = more glutathione. As to conditions: 5 µM; 24 h. An outline of the steps:
as §1
Consider `O=C(CCCCCCC(=O)Nc1ccccc1)NO`, for which the total intracellular glutathione was 60.5 ± 3.5.

Take `Cn1c(SC2=CS(=O)(=O)c3ccccc32)nnc1-c1ccc(O)cc1`: the total intracellular glutathione turned out to be 113 ± 51.

As to `Cc1onc(C(=O)N2CCN(C(c3ccc(Cl)cc3)c3ccc(Cl)cc3)CC2)c1[N+](=O)[O-]`, the total intracellular glutathione was 107.3 ± 0.95.

`Cc1cc(NC(=O)c2cccc(NC(=O)/C=C/CN(C)C)c2)ccc1Nc1nccc(-c2cccnc2)n1`: the total intracellular glutathione amounted to 93.9 ± 3.6.

For `c1ccc(-c2noc(NC3CCCC3)n2)cc1`, the total intracellular glutathione amounted to 103 ± 5.1.

As to `O=[N+]([O-])c1c(Cl)cc(Cl)c2nsnc12`, the total intracellular glutathione came out at 116 ± 6.5.

Turning to `O=C(/C(C(N1CC2=CC=CC=C2)=O)=C/C3=C(C)C=C(O)C=C3C)N(CC4=CC=CC=C4)C1=O`, the total intracellular glutathione was 99.8 ± 4.9.

Consider `Oc1cccc(O)c1O`, for which the total intracellular glutathione stood at 82.6 ± 6.4.

The same assay, now with this note: 10 µM; 24 h.
As to `O=C(CCCCCCC(=O)Nc1ccccc1)NO`, the total intracellular glutathione turned out to be 47.6 ± 4.1.

Regarding `Cn1c(SC2=CS(=O)(=O)c3ccccc32)nnc1-c1ccc(O)cc1`, the total intracellular glutathione was found to be 82.1 ± 41.

For the compound `Cc1onc(C(=O)N2CCN(C(c3ccc(Cl)cc3)c3ccc(Cl)cc3)CC2)c1[N+](=O)[O-]`, the total intracellular glutathione turned out to be 110 ± 4.7.

Consider `Cc1cc(NC(=O)c2cccc(NC(=O)/C=C/CN(C)C)c2)ccc1Nc1nccc(-c2cccnc2)n1`, for which the total intracellular glutathione is 94.7 ± 6.5.

For `c1ccc(-c2noc(NC3CCCC3)n2)cc1`, the total intracellular glutathione was 103 ± 10.

For `O=[N+]([O-])c1c(Cl)cc(Cl)c2nsnc12`, the total intracellular glutathione amounted to 81.7 ± 6.

Regarding `O=C(/C(C(N1CC2=CC=CC=C2)=O)=C/C3=C(C)C=C(O)C=C3C)N(CC4=CC=CC=C4)C1=O`, the total intracellular glutathione was 98.5 ± 2.1.

Turning to `Oc1cccc(O)c1O`, the total intracellular glutathione amounted to 48.8 ± 13.

Staying with this assay, now noted: 20 µM; 24 h.
In the case of `O=C(CCCCCCC(=O)Nc1ccccc1)NO`, the total intracellular glutathione came to 39.5 ± 5.2.

In the case of `Cn1c(SC2=CS(=O)(=O)c3ccccc32)nnc1-c1ccc(O)cc1`, the total intracellular glutathione worked out at 48.7 ± 27.

Turning to `Cc1onc(C(=O)N2CCN(C(c3ccc(Cl)cc3)c3ccc(Cl)cc3)CC2)c1[N+](=O)[O-]`, the total intracellular glutathione came to 107 ± 4.3.

Consider `Cc1cc(NC(=O)c2cccc(NC(=O)/C=C/CN(C)C)c2)ccc1Nc1nccc(-c2cccnc2)n1`, for which the total intracellular glutathione stood at 72.6 ± 3.4.

Regarding `c1ccc(-c2noc(NC3CCCC3)n2)cc1`, the total intracellular glutathione was determined as 107 ± 7.1.

For the compound `O=[N+]([O-])c1c(Cl)cc(Cl)c2nsnc12`, the total intracellular glutathione amounted to 48.7 ± 3.5.

Regarding `O=C(/C(C(N1CC2=CC=CC=C2)=O)=C/C3=C(C)C=C(O)C=C3C)N(CC4=CC=CC=C4)C1=O`, the total intracellular glutathione stood at 104 ± 5.8.

Consider `Oc1cccc(O)c1O`, for which the total intracellular glutathione worked out at 3.4 ± 0.69.

Still in this assay, the particulars now being: 40 µM; 24 h.
With `O=C(/C(C(N1CC2=CC=CC=C2)=O)=C/C3=C(C)C=C(O)C=C3C)N(CC4=CC=CC=C4)C1=O`, the total intracellular glutathione turned out to be 77.3 ± 11.

With `Oc1cccc(O)c1O`, the total intracellular glutathione was determined as 2.67 ± 0.16.

The assay is the same for the next values; noted with them: 80 µM; 24 h.
As for `O=C(/C(C(N1CC2=CC=CC=C2)=O)=C/C3=C(C)C=C(O)C=C3C)N(CC4=CC=CC=C4)C1=O`, the total intracellular glutathione amounted to 27.7 ± 8.

Turning to `Oc1cccc(O)c1O`, the total intracellular glutathione came to 2.53 ± 0.23.

A further assay relates to U-2 OS. Nature of the assay: cell painting activity score (Mahalanobis distance from DMSO wells); higher = stronger morphological phenotype. The conditions noted are these: 0.625 µM; 24 h. An outline of the steps: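 Using 384-well plates holding about 1,500 U-2 OS cells per well, treatment was applied by pin tool for 24 h at 37 °C, generally at six 2-fold concentrations ranging from 20 μM to 625 nM. Staining with MitoTracker, concanavalin A, phalloidin, wheat germ agglutinin, Hoechst and SYTO 14 preceded Opera Phenix imaging and CellProfiler feature extraction against DMSO cells on the same plate. Activity score and cell count are both referenced to DMSO wells, the former as a Mahalanobis distance. Four replicate plates were averaged for every value.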
With `O=C(CCCCCCC(=O)Nc1ccccc1)NO`, the “cell painting activity score” value turned out to be 9.26.

For the compound `Cn1c(SC2=CS(=O)(=O)c3ccccc32)nnc1-c1ccc(O)cc1`, the “cell painting activity score” value was 6.03.

`Cc1onc(C(=O)N2CCN(C(c3ccc(Cl)cc3)c3ccc(Cl)cc3)CC2)c1[N+](=O)[O-]`: the “cell painting activity score” value stood at 8.18.

Regarding `Cc1cc(NC(=O)c2cccc(NC(=O)/C=C/CN(C)C)c2)ccc1Nc1nccc(-c2cccnc2)n1`, the “cell painting activity score” value is 10.3.

Take `c1ccc(-c2noc(NC3CCCC3)n2)cc1`: the “cell painting activity score” value turned out to be 2.72.

`O=[N+]([O-])c1c(Cl)cc(Cl)c2nsnc12`: the “cell painting activity score” value was found to be 5.1.

On to `O=C(/C(C(N1CC2=CC=CC=C2)=O)=C/C3=C(C)C=C(O)C=C3C)N(CC4=CC=CC=C4)C1=O`, for which the “cell painting activity score” value was 3.82.

With `Oc1cccc(O)c1O`, the “cell painting activity score” value worked out at 3.4.

The same assay, now with this note: 1.25 µM; 24 h.
As to `O=C(CCCCCCC(=O)Nc1ccccc1)NO`, the “cell painting activity score” value was 11.1.

Consider `Cn1c(SC2=CS(=O)(=O)c3ccccc32)nnc1-c1ccc(O)cc1`, for which the “cell painting activity score” value came out at 8.31.

As to `Cc1onc(C(=O)N2CCN(C(c3ccc(Cl)cc3)c3ccc(Cl)cc3)CC2)c1[N+](=O)[O-]`, the “cell painting activity score” value amounted to 8.49.

Turning to `Cc1cc(NC(=O)c2cccc(NC(=O)/C=C/CN(C)C)c2)ccc1Nc1nccc(-c2cccnc2)n1`, the “cell painting activity score” value worked out at 11.4.

Turning to `c1ccc(-c2noc(NC3CCCC3)n2)cc1`, the “cell painting activity score” value is 2.85.

With `O=[N+]([O-])c1c(Cl)cc(Cl)c2nsnc12`, the “cell painting activity score” value came to 10.7.

Take `O=C(/C(C(N1CC2=CC=CC=C2)=O)=C/C3=C(C)C=C(O)C=C3C)N(CC4=CC=CC=C4)C1=O`: the “cell painting activity score” value came out at 5.14.

As for `Oc1cccc(O)c1O`, the “cell painting activity score” value stood at 4.83.

The same assay, now with this note: 2.5 µM; 24 h.
For `O=C(CCCCCCC(=O)Nc1ccccc1)NO`, the “cell painting activity score” value is 12.

As to `Cn1c(SC2=CS(=O)(=O)c3ccccc32)nnc1-c1ccc(O)cc1`, the “cell painting activity score” value was found to be 10.7.

Regarding `Cc1onc(C(=O)N2CCN(C(c3ccc(Cl)cc3)c3ccc(Cl)cc3)CC2)c1[N+](=O)[O-]`, the “cell painting activity score” value is 10.6.

On to `Cc1cc(NC(=O)c2cccc(NC(=O)/C=C/CN(C)C)c2)ccc1Nc1nccc(-c2cccnc2)n1`, for which the “cell painting activity score” value was determined as 11.

With `c1ccc(-c2noc(NC3CCCC3)n2)cc1`, the “cell painting activity score” value is 2.97.
